Key:
HiBit-BRM fusion protein = target: T1, HiBit-BRM fusion protein (Homo sapiens, UniProt P51531); experiment: HiBiT-BRM cell-based degradation assay (Nano-Glo HiBiT Lytic Detection, 24 h); details: HeLa cell line expressing HiBiT-BRM; for DC50: read-out: BRM HiBit Degradation IC50
T1 construct: expressed in transfected cells
Outline: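 HeLa cells stably expressing HiBiT-BRM were dosed with compounds (10-point 3-fold dilutions, 30 μM final top dose, duplicate) for 24 h. HiBiT signal was read by lytic LgBiT complementation luminescence. Percent degradation was normalised to DMSO (high control) and 2 μM of a reference BRM/BRG1 degrader (low control).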

[1] = target: T2, HiBit-BRG1 fusion protein (Homo sapiens, UniProt P51532); experiment: HiBiT-BRG1 cell-based degradation assay (Nano-Glo HiBiT Lytic Detection, 24 h); details: HeLa cell line expressing HiBit-BRG1 and LgBit; for Dmax: read-out: BRG1 HiBit Degradation Maximum (%); for DC50: read-out: BRMG1 HiBit Degradation IC50
T2 construct: expressed in transfected cells
T2 sequence (P51532 whole entry, the tested form may be a part): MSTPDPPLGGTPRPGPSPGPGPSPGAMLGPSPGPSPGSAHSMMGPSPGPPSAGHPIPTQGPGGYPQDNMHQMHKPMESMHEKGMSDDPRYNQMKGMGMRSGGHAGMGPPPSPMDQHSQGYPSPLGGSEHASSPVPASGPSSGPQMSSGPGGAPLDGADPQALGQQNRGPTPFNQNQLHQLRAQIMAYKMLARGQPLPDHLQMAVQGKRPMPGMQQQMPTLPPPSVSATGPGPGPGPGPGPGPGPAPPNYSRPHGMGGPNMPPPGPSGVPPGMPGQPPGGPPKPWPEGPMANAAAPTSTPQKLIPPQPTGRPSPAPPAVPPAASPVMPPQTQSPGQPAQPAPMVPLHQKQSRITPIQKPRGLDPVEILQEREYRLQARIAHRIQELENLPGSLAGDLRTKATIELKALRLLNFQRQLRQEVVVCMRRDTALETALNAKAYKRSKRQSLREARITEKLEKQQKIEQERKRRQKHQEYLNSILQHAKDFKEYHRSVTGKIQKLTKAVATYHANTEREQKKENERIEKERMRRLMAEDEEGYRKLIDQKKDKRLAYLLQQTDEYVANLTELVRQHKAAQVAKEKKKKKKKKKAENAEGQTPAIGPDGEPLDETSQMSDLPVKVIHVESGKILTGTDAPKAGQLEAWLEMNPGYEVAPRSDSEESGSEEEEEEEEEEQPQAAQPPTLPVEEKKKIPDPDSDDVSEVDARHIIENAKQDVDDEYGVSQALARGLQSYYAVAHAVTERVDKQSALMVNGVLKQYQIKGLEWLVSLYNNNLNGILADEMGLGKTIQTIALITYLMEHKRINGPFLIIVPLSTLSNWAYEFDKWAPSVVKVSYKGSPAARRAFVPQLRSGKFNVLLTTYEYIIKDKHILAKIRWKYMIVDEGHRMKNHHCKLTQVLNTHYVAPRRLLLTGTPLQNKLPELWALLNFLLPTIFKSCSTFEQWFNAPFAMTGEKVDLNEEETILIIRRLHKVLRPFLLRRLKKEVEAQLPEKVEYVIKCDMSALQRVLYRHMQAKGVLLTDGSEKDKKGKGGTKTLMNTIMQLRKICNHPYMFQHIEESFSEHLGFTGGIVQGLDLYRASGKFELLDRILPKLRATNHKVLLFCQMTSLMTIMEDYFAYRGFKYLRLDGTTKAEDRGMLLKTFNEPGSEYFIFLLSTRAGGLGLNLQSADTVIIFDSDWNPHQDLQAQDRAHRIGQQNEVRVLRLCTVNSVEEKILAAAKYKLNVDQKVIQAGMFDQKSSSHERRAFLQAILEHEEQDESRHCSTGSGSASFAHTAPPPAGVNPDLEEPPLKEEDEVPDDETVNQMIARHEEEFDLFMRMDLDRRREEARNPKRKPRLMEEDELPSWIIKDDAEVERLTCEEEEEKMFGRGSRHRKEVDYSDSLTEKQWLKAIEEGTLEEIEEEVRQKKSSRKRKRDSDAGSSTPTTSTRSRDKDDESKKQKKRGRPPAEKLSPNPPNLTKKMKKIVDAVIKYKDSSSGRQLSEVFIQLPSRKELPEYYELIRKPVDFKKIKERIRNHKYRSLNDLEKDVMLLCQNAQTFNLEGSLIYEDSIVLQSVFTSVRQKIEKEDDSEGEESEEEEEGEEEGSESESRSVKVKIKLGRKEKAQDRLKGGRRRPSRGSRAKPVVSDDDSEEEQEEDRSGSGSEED
Outline: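 Seed 5000 HeLa HiBit-BRG1/LgBit cells per well; treat 24 h; equilibrate 15 min at room temperature; add Nano-Glo HiBiT lytic reagent, shake 10 min, read luminescence. Percent degradation is scaled between DMSO and 2 μM reference degrader wells.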

T1 sequence (P51531 whole entry, the tested form may be a part): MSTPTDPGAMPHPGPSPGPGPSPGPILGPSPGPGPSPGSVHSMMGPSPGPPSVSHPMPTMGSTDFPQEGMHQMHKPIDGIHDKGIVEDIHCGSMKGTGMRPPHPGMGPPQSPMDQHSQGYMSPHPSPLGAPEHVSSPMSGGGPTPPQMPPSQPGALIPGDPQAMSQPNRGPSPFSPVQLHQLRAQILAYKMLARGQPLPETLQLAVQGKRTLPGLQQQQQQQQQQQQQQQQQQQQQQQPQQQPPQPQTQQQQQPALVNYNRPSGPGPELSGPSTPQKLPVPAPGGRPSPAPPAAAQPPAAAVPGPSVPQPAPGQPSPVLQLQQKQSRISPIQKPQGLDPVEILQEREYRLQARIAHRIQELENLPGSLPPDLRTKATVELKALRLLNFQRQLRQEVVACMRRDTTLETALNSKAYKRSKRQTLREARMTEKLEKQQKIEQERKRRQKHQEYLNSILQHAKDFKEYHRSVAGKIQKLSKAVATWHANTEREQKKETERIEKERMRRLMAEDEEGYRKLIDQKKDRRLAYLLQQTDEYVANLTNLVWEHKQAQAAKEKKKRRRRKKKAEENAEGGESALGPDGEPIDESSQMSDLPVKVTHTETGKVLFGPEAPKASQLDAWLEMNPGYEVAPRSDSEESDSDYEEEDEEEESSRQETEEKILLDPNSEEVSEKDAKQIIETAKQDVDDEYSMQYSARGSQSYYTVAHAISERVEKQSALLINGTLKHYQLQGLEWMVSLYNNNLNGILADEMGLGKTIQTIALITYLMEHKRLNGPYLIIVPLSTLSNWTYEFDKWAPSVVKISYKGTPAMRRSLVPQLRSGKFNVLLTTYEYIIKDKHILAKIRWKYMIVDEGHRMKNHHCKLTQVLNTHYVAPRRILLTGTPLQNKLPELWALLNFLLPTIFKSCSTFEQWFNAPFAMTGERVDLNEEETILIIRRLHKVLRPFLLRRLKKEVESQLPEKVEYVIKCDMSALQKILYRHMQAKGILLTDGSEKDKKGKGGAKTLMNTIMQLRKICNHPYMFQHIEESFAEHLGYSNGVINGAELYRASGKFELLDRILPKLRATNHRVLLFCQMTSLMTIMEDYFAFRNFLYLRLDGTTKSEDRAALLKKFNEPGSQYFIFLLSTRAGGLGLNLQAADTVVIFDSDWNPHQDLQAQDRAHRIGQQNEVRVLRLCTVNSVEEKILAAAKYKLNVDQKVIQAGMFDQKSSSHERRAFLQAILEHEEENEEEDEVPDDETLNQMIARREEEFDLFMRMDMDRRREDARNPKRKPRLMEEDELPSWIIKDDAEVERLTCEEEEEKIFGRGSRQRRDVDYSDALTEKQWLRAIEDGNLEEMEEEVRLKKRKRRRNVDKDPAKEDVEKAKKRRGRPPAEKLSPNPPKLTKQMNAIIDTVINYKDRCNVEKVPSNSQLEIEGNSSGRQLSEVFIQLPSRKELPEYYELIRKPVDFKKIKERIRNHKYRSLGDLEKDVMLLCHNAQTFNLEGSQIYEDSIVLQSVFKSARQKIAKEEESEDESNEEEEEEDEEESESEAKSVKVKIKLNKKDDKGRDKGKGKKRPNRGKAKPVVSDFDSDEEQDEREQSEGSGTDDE

DC50 (HiBit-BRM fusion protein) [nM] | Dmax [1] [%] | DC50 [1] [nM] | SMILES | BRM HiBit Degradation Maximum (%) (HiBit-BRM fusion protein)
> 10 | < 50 | – | Cc1ncsc1-c1ccc([C@H](C)NC(=O)[C@@H]2C[C@@H](O)CN2C(=O)[C@@H](c2cc(OCCN3C[C@@H]4[C@H](C3)[C@H]4c3cc4cc(-c5cccc(Cl)c5O)nnc4[nH]3)no2)C(C)C)cc1 (racemic) [Compound 110, (2S,4R)-1-((R)-2-(3-(2-((1R,5S,6R)-6-(3-(3-chloro-2-hydroxyphenyl)-7H-pyrrolo[2,3-c]pyridazin-6-yl)-3-azabicyclo[3.1.0]hexan-3-yl)ethoxy)isoxazol-5-yl)-3-methylbutanoyl)-4-hydroxy-N-((S)-1-(4-(4-methylthiazol-5-yl)phenyl)ethyl)pyrrolidine-2-carboxamide] | A (“A” indicates maximum degradation ≥ 75%)
> 10 | > 50 | > 100 | Cc1ncsc1-c1ccc([C@H](C)NC(=O)[C@@H]2C[C@@H](O)CN2C(=O)[C@@H](c2cc(N3CCC(N(C)[C@H]4CCc5[nH]c6nnc(-c7ccccc7O)cc6c5C4)CC3)no2)C(C)C)cc1 (racemic) [Compound 111, (2S,4R)-4-hydroxy-1-((R)-2-(3-(4-(((S)-3-(2-hydroxyphenyl)-6,7,8,9-tetrahydro-5H-pyridazino[3,4-b]indol-6-yl)(methyl)amino)piperidin-1-yl)isoxazol-5-yl)-3-methylbutanoyl)-N-((S)-1-(4-(4-methylthiazol-5-yl)phenyl)ethyl)pyrrolidine-2-carboxamide] | A (“A” indicates maximum degradation ≥ 75%)
> 10 | < 50 | – | Cc1ncsc1-c1ccc([C@H](C)NC(=O)[C@@H]2C[C@@H](O)CN2C(=O)[C@@H](c2cc(C3CCN(Cc4cc5cc(-c6ccccc6O)nnc5[nH]4)CC3)no2)C(C)C)cc1 (racemic) [Compound 118, (2S,4R)-4-hydroxy-1-((R)-2-(3-(1-((3-(2-hydroxyphenyl)-7H-pyrrolo[2,3-c]pyridazin-6-yl)methyl)piperidin-4-yl)isoxazol-5-yl)-3-methylbutanoyl)-N-((S)-1-(4-(4-methylthiazol-5-yl)phenyl)ethyl)pyrrolidine-2-carboxamide] | A (“A” indicates maximum degradation ≥ 75%)
> 10 | < 50 | – | Cc1ncsc1-c1ccc([C@H](C)NC(=O)[C@@H]2C[C@@H](O)CN2C(=O)[C@@H](c2cc(OCCN3CC(c4[nH]c5nnc(-c6ccccc6O)cc5c4Br)C3)no2)C(C)C)cc1 (racemic) [Compound 120] | A (“A” indicates maximum degradation ≥ 75%)
> 100 | < 50 | – | Cc1ncsc1-c1ccc([C@H](C)NC(=O)[C@@H]2C[C@@H](O)CN2C(=O)[C@@H](c2cc(OCCN3CC(c4[nH]c5nnc(-c6ccccc6O)cc5c4F)C3)no2)C(C)C)cc1 (racemic) [Compound 121, (2S,4R)-1-[(2R)-2-[3-(2-{3-[5-fluoro-3-(2-hydroxyphenyl)-7H-pyrrolo[2,3-c]pyridazin-6-yl]azetidin-1-yl}ethoxy)-1,2-oxazol-5-yl]-3-methylbutanoyl]-4-hydroxy-N-[(1S)-1-[4-(4-methyl-1,3-thiazol-5-yl)phenyl]ethyl]pyrrolidine-2-carboxamide] | A (“A” indicates maximum degradation ≥ 75%)
> 10 | < 50 | – | Cc1ncsc1-c1ccc([C@H](C)NC(=O)[C@@H]2C[C@@H](O)CN2C(=O)[C@@H](c2cc(OCCN3C[C@@H]4[C@H](C3)[C@H]4c3[nH]c4nnc(-c5cc(F)cc(F)c5O)cc4c3C)no2)C(C)C)cc1 (racemic) [Compound 125, (2S,4R)-1-((R)-2-(3-(2-((1R,5S,6R)-6-(3-(3,5-difluoro-2-hydroxyphenyl)-5-methyl-7H-pyrrolo[2,3-c]pyridazin-6-yl)-3-azabicyclo[3.1.0]hexan-3-yl)ethoxy)isoxazol-5-yl)-3-methylbutanoyl)-4-hydroxy-N-((S)-1-(4-(4-methylthiazol-5-yl)phenyl)ethyl)pyrrolidine-2-carboxamide] | A (“A” indicates maximum degradation ≥ 75%)
> 10 | > 50 | > 100 | Cc1ncsc1-c1ccc([C@H](C)NC(=O)[C@@H]2C[C@@H](O)CN2C(=O)[C@@H](c2cc(OCCN3C[C@@H]4[C@H](C3)[C@H]4c3[nH]c4nnc(-c5cccc(F)c5O)cc4c3C)no2)C(C)C)cc1 (racemic) [Compound 126, (2S,4R)-1-((R)-2-(3-(2-((1R,5S,6R)-6-(3-(3-fluoro-2-hydroxyphenyl)-5-methyl-7H-pyrrolo[2,3-c]pyridazin-6-yl)-3-azabicyclo[3.1.0]hexan-3-yl)ethoxy)isoxazol-5-yl)-3-methylbutanoyl)-4-hydroxy-N-((S)-1-(4-(4-methylthiazol-5-yl)phenyl)ethyl)pyrrolidine-2-carboxamide] | A (“A” indicates maximum degradation ≥ 75%)
> 10 | < 50 | – | Cc1ncsc1-c1ccc([C@H](C)NC(=O)[C@@H]2C[C@@H](O)CN2C(=O)[C@@H](c2cc(OCCN3CC(c4[nH]c5nnc(-c6cccc(F)c6O)cc5c4C)C3)no2)C(C)C)cc1 (racemic) [Compound 127, (2S,4R)-1-((R)-2-(3-(2-(3-(3-(3-fluoro-2-hydroxyphenyl)-5-methyl-7H-pyrrolo[2,3-c]pyridazin-6-yl)azetidin-1-yl)ethoxy)isoxazol-5-yl)-3-methylbutanoyl)-4-hydroxy-N-((S)-1-(4-(4-methylthiazol-5-yl)phenyl)ethyl)pyrrolidine-2-carboxamide] | A (“A” indicates maximum degradation ≥ 75%)
< 10 | > 75 | > 10 | Cc1ncsc1-c1ccc([C@H](C)NC(=O)[C@@H]2C[C@@H](O)CN2C(=O)[C@@H](c2cc(OCCCN3C[C@@H]4[C@H](C3)[C@H]4c3c(C)[nH]c4nnc(-c5ccccc5O)cc34)no2)C(C)C)cc1 (racemic) [Compound 128, (2S,4R)-4-hydroxy-1-((R)-2-(3-(3-((1R,5S,6S)-6-(3-(2-hydroxyphenyl)-6-methyl-7H-pyrrolo[2,3-c]pyridazin-5-yl)-3-azabicyclo[3.1.0]hexan-3-yl)propoxy)isoxazol-5-yl)-3-methylbutanoyl)-N-((S)-1-(4-(4-methylthiazol-5-yl)phenyl)ethyl)pyrrolidine-2-carboxamide] | A (“A” indicates maximum degradation ≥ 75%)

SMILES | DC50 (HiBit-BRM fusion protein) [nM] | Dmax [1] [%] | DC50 [1] [nM] | BRM HiBit Degradation Maximum (%) (HiBit-BRM fusion protein)
Cc1ncsc1-c1ccc([C@H](C)NC(=O)[C@@H]2C[C@@H](O)CN2C(=O)[C@@H](c2cc(N3CCN(C(=O)N4CC(c5cc6cc(-c7ccccc7O)nnc6[nH]5)C4)CC3)no2)C(C)C)cc1 (racemic) [Compound 124, (2S,4R)-4-hydroxy-1-[(2R)-2-[3-(4-{3-[3-(2-hydroxyphenyl)-7H-pyrrolo[2,3-c]pyridazin-6-yl]azetidine-1-carbonyl}piperazin-1-yl)-1,2-oxazol-5-yl]-3-methylbutanoyl]-N-[(1S)-1-[4-(4-methyl-1,3-thiazol-5-yl)phenyl]ethyl]pyrrolidine-2-carboxamide] | > 10 | – | > 100 | A (“A” indicates maximum degradation ≥ 75%)

Source: patent US20240024488A1, “COMPOUNDS AND USES THEREOF” (Foghorn Therapeutics Inc., priority 2020, published 2024)
